{
  "source": "ChEMBL document CHEMBL1150583",
  "about": "“New isoflavone and triterpene glycosides from soybeans” (2002)",
  "assay_type_in_all_cases": "functional",
  "key": {"[1]": {"test": "Cytotoxicity against human Hs 740.T cells after 6 days by MTT assay", "settings": "144 h, read-out: ED50 (the source's name)"}, "[2]": {"test": "Cytotoxicity against human Hs 746T cells after 6 days by MTT assay", "settings": "Hs746T, 144 h, read-out: ED50 (the source's name)"}, "[3]": {"test": "Cytotoxicity against human Hs 578T cells after 6 days by MTT assay", "settings": "144 h, read-out: ED50 (the source's name)"}, "[4]": {"test": "Cytotoxicity against human Hs 742.T cells after 6 days by MTT assay", "settings": "144 h, read-out: ED50 (the source's name)"}, "DU-145": {"system": "DU-145", "test": "Cytotoxicity against human DU145 cells after 6 days by MTT assay", "settings": "DU-145, 144 h, read-out: ED50 (the source's name)"}, "[5]": {"test": "Cytotoxicity against human LNCaP-FGC cells after 6 days by MTT assay", "settings": "LNCaP-Clone-FGC, 144 h, read-out: ED50 (the source's name)"}},
  "data": [
    {"molecule": "C[C@@H]1O[C@@H](O[C@H]2[C@H](O[C@H]3[C@H](O[C@H]4CC[C@@]5(C)[C@@H](CC[C@]6(C)[C@@H]5CC=C5[C@@H]7CC(C)(C)C[C@@H](O[C@@H]8O[C@H](CO)[C@@H](O)[C@H](O)[C@H]8O[C@@H]8O[C@@H](C)[C@H](O)[C@@H](O)[C@H]8O)[C@]7(C)CC[C@]56C)[C@]4(C)CO)O[C@H](C(=O)O)[C@@H](O)[C@@H]3O)O[C@H](CO)[C@H](O)[C@@H]2O)[C@H](O)[C@H](O)[C@H]1O", "values": [
      {"measurement": "EC50", "setting": "[1]", "value": 4.1, "unit": "µg/mL"},
      {"measurement": "EC50", "setting": "[2]", "value": 3.94, "unit": "µg/mL"},
      {"measurement": "EC50", "setting": "[3]", "value": 2.12, "unit": "µg/mL"},
      {"measurement": "EC50", "setting": "[4]", "value": 14.6, "unit": "µg/mL"},
      {"measurement": "EC50", "setting": "DU-145", "value": 3.25, "unit": "µg/mL"},
      {"measurement": "EC50", "setting": "[5]", "value": 24.1, "unit": "µg/mL"}
    ]},
    {"molecule": "C[C@@H]1O[C@@H](O[C@H]2[C@H](O[C@@H]3CC(C)(C)C[C@H]4C5=CC[C@@H]6[C@@]7(C)CC[C@H](O[C@@H]8O[C@H](C(=O)O)[C@@H](O)[C@H](O)[C@H]8O[C@@H]8O[C@H](CO)[C@H](O)[C@H](O)[C@H]8O[C@@H]8O[C@@H](C)[C@H](O)[C@@H](O)[C@H]8O)[C@@](C)(CO)[C@@H]7CC[C@@]6(C)[C@]5(C)CC[C@@]34C)OC[C@H](O)[C@@H]2O)[C@H](O)[C@H](O)[C@H]1O", "values": [
      {"measurement": "EC50", "setting": "[1]", "value": 3.53, "unit": "µg/mL"},
      {"measurement": "EC50", "setting": "[2]", "value": 2.47, "unit": "µg/mL"},
      {"measurement": "EC50", "setting": "[3]", "value": 2.39, "unit": "µg/mL"},
      {"measurement": "EC50", "setting": "[4]", "value": 17.5, "unit": "µg/mL"},
      {"measurement": "EC50", "setting": "DU-145", "value": 3.12, "unit": "µg/mL"},
      {"measurement": "EC50", "setting": "[5]", "value": 27.5, "unit": "µg/mL"}
    ]},
    {"molecule": "CC1(C)C[C@@H](O)[C@]2(C)CC[C@]3(C)C(=CC[C@@H]4[C@@]5(C)CC[C@H](O[C@@H]6O[C@H](C(=O)O)[C@@H](O)[C@H](O)[C@H]6O)[C@@](C)(CO)[C@@H]5CC[C@]43C)[C@@H]2C1", "note": "[3-O-[BETA-D-GLUCURONOPYRANOSYL]SOYASAPOGENOL B]", "values": [
      {"measurement": "EC50", "setting": "[1]", "value": 9.61, "unit": "µg/mL"},
      {"measurement": "EC50", "setting": "[2]", "value": 9.59, "unit": "µg/mL"},
      {"measurement": "EC50", "setting": "[3]", "value": 8.77, "unit": "µg/mL"},
      {"measurement": "EC50", "setting": "[4]", "value": 28.7, "unit": "µg/mL"},
      {"measurement": "EC50", "setting": "DU-145", "value": 9.13, "unit": "µg/mL"},
      {"measurement": "EC50", "setting": "[5]", "value": 37.3, "unit": "µg/mL"}
    ]},
    {"molecule": "O=c1c(-c2ccc(O)cc2)coc2cc(O)cc(O)c12", "note": "[GENISTEIN]", "values": [
      {"measurement": "EC50", "setting": "[1]", "value": 4.38, "unit": "µg/mL"},
      {"measurement": "EC50", "setting": "[2]", "value": 5.82, "unit": "µg/mL"},
      {"measurement": "EC50", "setting": "[3]", "value": 3.5, "unit": "µg/mL"},
      {"measurement": "EC50", "setting": "[4]", "value": 14.9, "unit": "µg/mL"},
      {"measurement": "EC50", "setting": "DU-145", "value": 2.39, "unit": "µg/mL"},
      {"measurement": "EC50", "setting": "[5]", "value": 25.4, "unit": "µg/mL"}
    ]},
    {"molecule": "O=C1c2c(O)cc(O[C@@H]3O[C@H](CO)[C@@H](O)[C@H](O)[C@H]3O)cc2OCC1c1ccc(O)cc1", "note": "(stereo partly drawn) [DIHYDROGENISTIN]", "values": [
      {"measurement": "EC50", "setting": "[1]", "value": 15.1, "unit": "µg/mL"},
      {"measurement": "EC50", "setting": "[2]", "value": 12.2, "unit": "µg/mL"},
      {"measurement": "EC50", "setting": "[3]", "value": 15.4, "unit": "µg/mL"},
      {"measurement": "EC50", "setting": "[4]", "value": 30.8, "unit": "µg/mL"},
      {"measurement": "EC50", "setting": "DU-145", "value": 10.2, "unit": "µg/mL"},
      {"measurement": "EC50", "setting": "[5]", "value": 41.6, "unit": "µg/mL"}
    ]},
    {"molecule": "CC1(C)C[C@@H](O)[C@]2(C)CC[C@]3(C)C(=CC[C@@H]4[C@@]5(C)CC[C@H](O[C@@H]6O[C@H](C(=O)O)[C@@H](O)[C@H](O)[C@H]6O[C@@H]6O[C@H](CO)[C@H](O)[C@H](O)[C@H]6O[C@@H]6O[C@H](CO)[C@@H](O)[C@H](O)[C@H]6O)[C@@](C)(CO)[C@@H]5CC[C@]43C)[C@@H]2C1", "note": "[3-O-[BETA-DGLUCOPYRANOSYL-(1->2)-BETA-D-GALACTOPYRANOSYL(1->2)-BETA-DGLUCURONOPYRANOSYL]SOYASAPOGENOL B]", "values": [
      {"measurement": "EC50", "setting": "[1]", "value": 8.97, "unit": "µg/mL"},
      {"measurement": "EC50", "setting": "[2]", "value": 7.36, "unit": "µg/mL"},
      {"measurement": "EC50", "setting": "[3]", "value": 9.87, "unit": "µg/mL"},
      {"measurement": "EC50", "setting": "[4]", "value": 31.6, "unit": "µg/mL"},
      {"measurement": "EC50", "setting": "DU-145", "value": 5.75, "unit": "µg/mL"},
      {"measurement": "EC50", "setting": "[5]", "value": 40.7, "unit": "µg/mL"}
    ]},
    {"molecule": "O=C1c2ccc(O[C@@H]3O[C@H](CO)[C@@H](O)[C@H](O)[C@H]3O)cc2OCC1c1ccc(O)cc1", "note": "(stereo partly drawn) [DIHYDRODAIDZIN]", "values": [
      {"measurement": "EC50", "setting": "[1]", "value": 17.4, "unit": "µg/mL"},
      {"measurement": "EC50", "setting": "[2]", "value": 14.9, "unit": "µg/mL"},
      {"measurement": "EC50", "setting": "[3]", "value": 28.2, "unit": "µg/mL"},
      {"measurement": "EC50", "setting": "[4]", "value": 33.6, "unit": "µg/mL"},
      {"measurement": "EC50", "setting": "DU-145", "value": 9.16, "unit": "µg/mL"},
      {"measurement": "EC50", "setting": "[5]", "value": 32.5, "unit": "µg/mL"}
    ]},
    {"molecule": "COc1ccc(-c2coc3cc(O[C@@H]4O[C@H](COC(C)=O)[C@@H](O)[C@H](O)[C@H]4OC(C)=O)ccc3c2=O)cc1", "values": [
      {"measurement": "EC50", "setting": "[1]", "value": 7.61, "unit": "µg/mL"},
      {"measurement": "EC50", "setting": "[2]", "value": 8.89, "unit": "µg/mL"},
      {"measurement": "EC50", "setting": "[3]", "value": 5.44, "unit": "µg/mL"},
      {"measurement": "EC50", "setting": "[4]", "value": 25.5, "unit": "µg/mL"},
      {"measurement": "EC50", "setting": "DU-145", "value": 4.18, "unit": "µg/mL"},
      {"measurement": "EC50", "setting": "[5]", "value": 22.1, "unit": "µg/mL"}
    ]}
  ]
}
